In brackets after ≈: the same amount, converted by molar mass.
Columns and labels:
[1] = target: Human immunodeficiency virus type 1 integrase (Human immunodeficiency virus 1, UniProt Q7ZJM1); assay: Inhibition of recombinant HIV-1 subtype C integrase using double-stranded FITC-labelled target DNA as substrate pre-incubated for 45 mins followed by substrate addition measured after 60 mins by strand transfer inhibition assay
[2] = test system: C8166; assay: Cytotoxicity against human C8166 cells assessed as reduction in cell viability by MTT assay; format: functional
[3] = Inhibition of wild-type HIV-1 BH10 reverse transcriptase-associated RNase H expressed in Escherichia coli using [gamma-32P]ATP-labeled 31Trna/21P as template/primer preincubated for 5 mins followed by template/primer addition by PAGE analysis; parameters: species or system Human immunodeficiency virus 1
[4] = target: Human immunodeficiency virus type 1 reverse transcriptase (Human immunodeficiency virus 1) (UniProt Q72547); assay: Displacement of [3H]TTP/polyA from HIV-1 reverse transcriptase at 200 ug/ml relative to control; settings: dose 200.0 µg/ml
[5] = test system: Influenza A virus; assay: Antiviral activity against Influenza virus A/Puerto Rico/8/34 (H1N1) infected in MDCK cells assessed as reduction in viral titer preincubated for 1 hr followed by viral infection at MOI of 0.01 for 24 hrs and subsequent addition of culture medium and incubated for 48 hrs followed by addition of chicken erythrocytes measured after 40 mins by agglutination method; format: functional, organism-based
[6] = target: T1, Human immunodeficiency virus type 1 reverse transcriptase (Human immunodeficiency virus 1, UniProt Q72547); assay: Inhibition of HIV-1 reverse transcriptase preincubated for 45 mins followed by substrate addition by immunoassay
[7] = test system: Human immunodeficiency virus 1; assay: Antiviral activity against HIV-1 NL4-3 infected in human MT4 cells assessed as reduction in viral replication incubated for 48 hrs followed by addition of fresh medium containing compound measured after 2 days by ELISA; format: functional, organism-based; settings: Human immunodeficiency virus 1, NL4-3, MT4, 48 h
[8] = target: T1, Human immunodeficiency virus type 1 reverse transcriptase; assay: Inhibition of HIV-1 LTR reverse transcriptase infected in human CEM cells using RNA template incubated for 1 hr by RT-PCR based cell-free assay
[9] = test system: Human immunodeficiency virus 1; assay: Antiviral activity against HIV-1 NL4-3 infected in human TZM-bl cells assessed as viral growth inhibition by luciferase assay; format: functional, organism-based; settings: Human immunodeficiency virus 1, NL4-3, TZM-bl
[10] = test system: Human immunodeficiency virus 1; assay: Antiviral activity against HIV-1 infected in PBMC (unknown origin) assessed as viral growth inhibition; format: functional, organism-based; settings: Human immunodeficiency virus 1, PBMC
[11] = test system: Human immunodeficiency virus; assay: Antiviral activity against HIV infected in human PBMC assessed as inhibition of viral infection at MOI of 0.5 incubated for 48 hrs followed by removal of infected supernatant and subsequent addition of supernatant to human LC-5 cells expressing DsRed1 measured after 72 hrs by EASY-HIT assay; format: functional, organism-based; settings: Human immunodeficiency virus 1, PBMC
[12] = test system: Human immunodeficiency virus 1; assay: Antiviral activity against HIV-1 infected in human CEM-GFP cells assessed as inhibition of viral replication incubated for 68 hrs by MTT assay; format: functional, organism-based; settings: Human immunodeficiency virus 1, CEM-GFP
[13] = test system: Human immunodeficiency virus 1; assay: Antiviral activity against HIV-1 assessed as viral growth inhibition; format: functional, organism-based
[14] = target: Human immunodeficiency virus type 1 reverse transcriptase (Human immunodeficiency virus 1) (UniProt Q72547); assay: Inhibition of recombinant HIV-1 reverse transcriptase at 200 ug/ml by ELISA relative to control; settings: dose 200.0 µg/ml
[15] = test system: Human immunodeficiency virus 1; assay: Antiviral activity against HIV-1 infected in human C8166 cells assessed as reduction in virus-induced cytopathic effect by MTT assay; format: functional, organism-based; settings: Human immunodeficiency virus 1, C8166

Chain of Human immunodeficiency virus type 1 integrase (Q7ZJM1 whole entry): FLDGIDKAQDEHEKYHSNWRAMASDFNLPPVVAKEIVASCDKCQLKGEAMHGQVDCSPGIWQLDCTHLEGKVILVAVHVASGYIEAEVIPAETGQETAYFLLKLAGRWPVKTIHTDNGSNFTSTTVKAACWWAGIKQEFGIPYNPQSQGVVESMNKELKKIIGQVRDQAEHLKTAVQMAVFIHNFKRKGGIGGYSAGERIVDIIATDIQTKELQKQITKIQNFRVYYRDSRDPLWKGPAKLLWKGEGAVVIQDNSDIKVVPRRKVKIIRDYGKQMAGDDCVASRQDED

With `CC(=O)N[C@H]1[C@H](O[C@H]2CC[C@]3(C)[C@H]4CC=C5[C@@H]6CC(C)(C)CC[C@]6(C(=O)O)CC[C@@]5(C)[C@]4(C)CC[C@H]3C2(C)C)O[C@H](CO)[C@@H](O)[C@@H]1O` the IC50 [1] was 18.3 µM.
With `C=C(CO)[C@@H]1Cc2cc3ccc(=O)oc3cc2O1` the CC50 [2] was over 200 µM.
`Nc1ccc(S(=O)(=O)N2CCN(C(=O)c3cc(O)c(O)c(O)c3)CC2)cc1` showed an IC50 [3] of 720 nM.
Work on `O=c1cc(-c2ccc(O)cc2)oc2c([C@@H]3O[C@H](CO)[C@@H](O)[C@H](O)[C@H]3O)c(O)cc(O)c12` yielded an inhibition [4] of 56.9%.
In the case of `C=CC(C)(C)c1cc2cc(C[C@@H](O)C(C)(C)O)c(O)cc2oc1=O`, the CC50 [2] is reported as over 200 µM.
With `Cc1cn([C@H]2C[C@H](n3cc(Cn4nnnc4CC(=O)N(C)C)nn3)[C@@H](CO)O2)c(=O)[nH]c1=O` the IC50 [5] was 39.6 µg/mL (≈ 86 µM).
With `O=C1CSC(c2ccc(F)cc2)N1c1nc2c(Cl)cccc2s1` (stereo not drawn) the IC50 [6] was under 1 nM.
`CCCCC/C=C/C=C/O[C@@]12[C@@H]([C@H]3OCO[C@@]3(C(C)=O)[C@H](OC(=O)CCCC)[C@H]1C)[C@@H]1O[C@]1(CO)[C@@H](O)[C@]1(O)C(=O)C(C)=C[C@H]12` showed an IC50 [7] of 0.9 nM.
In the case of `O=C(OCc1ccccc1)N1OCCC1n1cc(COCc2ccccc2)c(=O)[nH]c1=O` (stereo not drawn), the IC50 [8] is reported as 1000 nM.
Compound `C=C(C)[C@]12C[C@@H](COC(C)=O)[C@@]34OC5(O[C@@H]1[C@@H]3[C@@H]1O[C@]1(CO)[C@@H](O)[C@@]1(O)[C@H]4[C@H]([C@H](C)[C@@H]1C(=O)c1ccccc1)[C@H](C)C[C@H](C(=O)c1ccccc1)[C@H](C(=O)c1ccccc1)CCC[C@H]5O)O2` has an IC50 [7] of at most 0.25 nM.
For `CCCCCOC(=O)C[C@H](NP(=O)(CO[C@@H](CF)Cn1ccc2c(=O)[nH]c(N)nc21)Oc1ccccc1)C(=O)OCCCCC` (stereo partly drawn), the IC50 [9] was 2000 nM.
Compound `CC(=O)[C@@H]1Cc2cc3ccc(=O)oc3cc2O1` has a CC50 [2] of over 200 µM.
Work on `COc1cc(O)c(-c2c(C)cc(O)c3c2Cc2cccc(O)c2C3=O)c(O)c1C(C)=O` yielded an EC50 [10] of 4.3 µM.
`COc1cc2c(c(O)c1C)Oc1c(C=O)c(O)cc(C)c1C(=O)O2` gave an IC50 [1] of 4.65 µM.
In the case of `CC(C)(O)C(=O)Cc1cc2ccc(=O)oc2cc1O` [PEUCEDANONE], the CC50 [2] is reported as over 200 µM.
`C=CC(C)(C)c1cc2cc3c(cc2oc1=O)O[C@H](C(C)(C)O)[C@H]3O` showed a CC50 [2] of over 200 µM.
In the case of `COc1oc(C2C/C(=C/C(C)=C/c3ccc(C(F)(F)F)cc3)CO2)c(C)c(=O)c1C` (stereo not drawn), the IC50 [11] is reported as under 45 nM.
`Cc1cc(=O)c2ccc(N=C=S)cc2o1` gave an IC50 [12] of 1000 nM.
For `O=c1cc(-c2ccc(O)c(O)c2)oc2c([C@@H]3O[C@H](CO)[C@@H](O)[C@H](O)[C@H]3O)c(O)cc(O)c12`, the inhibition [4] was 52%.
`CC1=C(C(=O)OCc2ccccc2)C(c2cccc(C(F)(F)F)c2)NC(=O)N1` (stereo not drawn) showed an IC50 [13] of 15 µg/mL (≈ 38.4 µM).
`O=C1C[C@@H](c2ccc(O)cc2)Oc2cc(O)cc(O)c21` gave an inhibition [14] of 44.2%.
With `CCCCCOC(=O)C[C@H](NP(=O)(CO[C@@H](CF)Cn1ccc2c(=O)[nH]c(N)nc21)N[C@@H](CC(=O)OCCCCC)C(=O)OCCCCC)C(=O)OCCCCC` the IC50 [9] was 2000 nM.
For `COc1cc(-c2oc3cc(O)cc(O)c3c(=O)c2O)ccc1O`, the inhibition [14] was 57%.
Compound `O=C1CSC(c2ccc(O)cc2)N1c1nc2ccc(Cl)cc2s1` (stereo not drawn) has an IC50 [6] of 300 nM.
Work on `CC1=C(C(=O)OCc2ccccc2)C(c2ccc(Cl)c([N+](=O)[O-])c2)NC(=O)N1` (stereo not drawn) yielded an IC50 [13] of 15 µg/mL (≈ 37.3 µM).
`COc1cc2cc3c(cc2oc1=O)OC(C)(C)CC3` showed a CC50 [2] of over 200 µM.
With `C=C(C)[C@]12C[C@@H](COC(C)=O)[C@@]34OC5(O[C@@H]1[C@@H]3[C@@H]1O[C@]1(CO)[C@@H](O)[C@@]1(O)[C@H]4[C@H]([C@H](C)[C@@H]1C(=O)c1ccccc1)[C@H](C)C[C@H](C(=O)c1ccccc1)[C@H](OC(C)=O)[C@@H](C(=O)c1ccccc1)CC[C@H]5O)O2` the IC50 [7] was at most 0.25 nM.
Work on `C=CC(CO)[C@@H]1C[C@H]2c3[nH]c4ccccc4c3CCN2C(=O)[C@@H]1CO` (stereo partly drawn) yielded an EC50 [15] of 12.2 µM.
